47 compounds from the PolyMetriX glass transition set can be followed below.

Consider `*C(=O)c1ccc2c(c1)C(=O)N(c1cccc(C(=O)N(C)c3ccc(N4C(=O)c5ccc(*)cc5C4=O)cc3)c1)C2=O` (repeat unit), for which the glass transition temperature was determined as 260.50 °C.

Take `*C(=O)c1ccc2c(c1)C(=O)N(c1cccc(Cc3ccc(C(=O)c4cccc(N5C(=O)c6ccc(*)cc6C5=O)c4)cc3)c1)C2=O` (repeat unit): the glass transition temperature came to 265.50 °C. The compound `*Oc1ccc(Oc2ccc(C(=O)c3cccc(C(=O)c4ccc(*)cc4)c3)cc2)cc1S(=O)(=O)O` (repeat unit) showed a glass transition temperature of 195.00 °C. With `*Oc1ccc(S(=O)(=O)c2ccc(Oc3ccc(C(=O)c4cccc(C(=O)c5ccc(*)cc5)c4)cc3)cc2)cc1` (repeat unit), the glass transition temperature was 178.00 °C. In the case of `*c1ccc(Oc2ccc(-c3nc4ccc(Oc5ccc(N6C(=O)c7ccc(C(c8ccc9c(c8)C(=O)N(c8ccc(Oc%10ccc%11nc(*)c(-c%12ccccc%12)nc%11c%10)cc8)C9=O)(C(F)(F)F)C(F)(F)F)cc7C6=O)cc5)cc4nc3-c3ccccc3)cc2)cc1` (repeat unit), the glass transition temperature came to 267.00 °C.

Compound `*c1ccc(Oc2ccc(C(=O)c3cccc(C(=O)c4ccc(Oc5ccc(N6C(=O)c7ccc(Oc8ccc9c(c8)C(=O)N(*)C9=O)cc7C6=O)cc5)cc4)n3)cc2)cc1` (repeat unit) came in with a glass transition temperature of 208.60 °C. With `*c1ccc(Oc2ccc(N3C(=O)c4ccc(-c5ccc6c(c5)C(=O)N(*)C6=O)cc4C3=O)cc2)cc1` (repeat unit), the glass transition temperature came to 279.00 °C. For the compound `*c1ccc(Oc2ccc(N3C(=O)c4ccc(-c5ccc6c(c5)C(=O)N(*)C6=O)cc4C3=O)cc2Br)c(Br)c1` (repeat unit), the glass transition temperature came out at 275.00 °C. As for `*c1ccc(Oc2ccc(N3C(=O)c4ccc(-c5cccc6c5C(=O)N(*)C6=O)cc4C3=O)cc2)cc1` (repeat unit), the glass transition temperature came out at 320.00 °C. As for `*c1ccc(Oc2ccc(N3C(=O)c4ccc(P(=O)(c5ccccc5)c5ccc6c(c5)C(=O)N(*)C6=O)cc4C3=O)cc2)cc1` (repeat unit), the glass transition temperature came out at 318.00 °C. `*c1ccc(Oc2ccc(N3C(=O)c4ccc(S(=O)(=O)c5ccc6c(c5)C(=O)N(*)C6=O)cc4C3=O)cc2)cc1` (repeat unit) registered a glass transition temperature of 283.50 °C. Regarding `*c1ccc(Oc2ccc(Oc3ccc(N4C(=O)c5ccc(-c6ccc7c(c6)C(=O)N(*)C7=O)cc5C4=O)cc3)c(-c3ccccc3)c2)cc1` (repeat unit), the glass transition temperature amounted to 247.00 °C. In the case of `*c1ccc(Oc2ccc(S(=O)(=O)c3ccc(Oc4ccc(N5C(=O)c6ccc([Si](C)(C)c7ccc8c(c7)C(=O)N(*)C8=O)cc6C5=O)cc4)cc3)cc2)cc1` (repeat unit), the glass transition temperature came out at 246.00 °C.

`*c1ccc(Oc2ccccc2Oc2ccc(N3C(=O)c4ccc(-c5ccc6c(c5)C(=O)N(*)C6=O)cc4C3=O)cc2)cc1` (repeat unit) yielded a glass transition temperature of 241.00 °C.

The compound `*c1ccc(Sc2ccc(Sc3ccc(Sc4ccc(N5C(=O)c6ccc(-c7cccc8c7C(=O)N(*)C8=O)cc6C5=O)cc4)cc3)cc2)cc1` (repeat unit) yielded a glass transition temperature of 226.70 °C.

For the compound `*c1ccc2c(c1)C(=O)N(c1ccc(OCCOCCOc3ccc(N4C(=O)c5ccc(C(*)(C(F)(F)F)C(F)(F)F)cc5C4=O)cc3)cc1)C2=O` (repeat unit), the glass transition temperature is 187.50 °C. The figure for `*c1ccc2c(c1)C(=O)N(c1ccc(Oc3ccc(N4C(=O)c5ccc(C(*)O[Si](C)(C)O[Si](C)(C)O[Si](C)(C)C)cc5C4=O)cc3)cc1)C2=O` (repeat unit) is 167.00 °C. On to `*c1ccc2c(c1)C(=O)N(c1ccc(Oc3ccc(N4C(=O)c5ccc(C(F)(F)C(F)(F)C(F)(F)C(F)(F)C(F)(F)C(F)(F)C(*)(F)F)cc5C4=O)cc3)cc1)C2=O` (repeat unit), for which the glass transition temperature was found to be 178.00 °C. In the case of `*c1ccc2c(c1)C(=O)N(c1ccc(Oc3ccc(N4C(=O)c5ccc(C(F)(F)C(F)(F)C(F)(F)C(F)(F)C(F)(F)C(F)(F)C(F)(F)C(*)(F)F)cc5C4=O)cc3)cc1)C2=O` (repeat unit) it was 186.00 °C; in that of `*c1ccc2c(c1)C(=O)N(c1ccc(Oc3ccccc3Oc3ccc(N4C(=O)c5ccc(C(*)(C(F)(F)F)C(F)(F)F)cc5C4=O)cc3C(F)(F)F)c(C(F)(F)F)c1)C2=O` (repeat unit), 247.00 °C. In the case of `*c1ccc2c(c1)C(=O)N(c1ccc(Sc3ccc(Oc4ccc(Sc5ccc(N6C(=O)c7ccc(C(*)(C(F)(F)F)C(F)(F)F)cc7C6=O)cc5)cc4)cc3)cc1)C2=O` (repeat unit) it was 242.00 °C. `*c1ccc2c(c1)C(=O)N(c1ccc3c(c1)Cc1cc(N4C(=O)c5ccc(C(*)(C(F)(F)F)C(F)(F)F)cc5C4=O)ccc1-3)C2=O` (repeat unit) had a glass transition temperature of 394.00 °C.

As to `*c1ccc2c(c1)C(=O)N(c1cccc(C(F)(F)C(F)(F)C(F)(F)c3cccc(N4C(=O)c5ccc(C(F)(F)C(F)(F)C(F)(F)C(F)(F)C(F)(F)C(F)(F)C(*)(F)F)cc5C4=O)c3)c1)C2=O` (repeat unit), the glass transition temperature is 133.50 °C.

For `*c1ccc2c(c1)C(=O)N(c1cccc(C(c3cccc(N4C(=O)c5ccc(C(*)(C(F)(F)F)C(F)(F)F)cc5C4=O)c3)(C(F)(F)F)C(F)(F)F)c1)C2=O` (repeat unit), the glass transition temperature stood at 263.00 °C.

`*c1ccc2c(c1)C(=O)N(c1cccc(Oc3ccc(C(c4ccc(Oc5cccc(N6C(=O)c7ccc(C(*)(C(F)(F)F)C(F)(F)F)cc7C6=O)c5)cc4)(C(F)(F)F)C(F)(F)F)cc3)c1)C2=O` (repeat unit) gave a glass transition temperature of 224.00 °C. For `*c1ccc2c(c1)C(=O)N(c1cccc(Oc3ccc(N4C(=O)c5ccc(-c6c(-c7ccccc7)c(-c7ccccc7)c(-c7ccc(Oc8ccc(-c9c(-c%10ccccc%10)c(-c%10ccccc%10)c(*)c(-c%10ccccc%10)c9-c9ccccc9)cc8)cc7)c(-c7ccccc7)c6-c6ccccc6)cc5C4=O)cc3)c1)C2=O` (repeat unit), the glass transition temperature came out at 309.00 °C.

Turning to `*c1ccc2c(c1)C(=O)N(c1cccc(Oc3ccc(P(=O)(c4ccccc4)c4ccc(Oc5cccc(N6C(=O)c7ccc(C(*)(C(F)(F)F)C(F)(F)F)cc7C6=O)c5)cc4)cc3)c1)C2=O` (repeat unit), the glass transition temperature came to 243.00 °C. The compound `*c1ccc2c(c1)C(=O)N(c1cccc(Oc3ccc(S(=O)(=O)c4ccc(Oc5cccc(N6C(=O)c7ccc(C(*)(C(F)(F)F)C(F)(F)F)cc7C6=O)c5)cc4)cc3)c1)C2=O` (repeat unit) yielded a glass transition temperature of 209.50 °C. For `*c1ccc2c(c1)C(=O)N(c1cccc(Oc3cccc(N4C(=O)c5ccc(C(*)(C(F)(F)F)C(F)(F)F)cc5C4=O)c3)c1)C2=O` (repeat unit), the glass transition temperature stood at 244.00 °C. In the case of `*c1ccc2c(c1)C(=O)N(c1cccc(Oc3cccc(N4C(=O)c5ccc(C(F)(F)C(F)(F)C(*)(F)F)cc5C4=O)c3)c1)C2=O` (repeat unit) it was 312.00 °C.

For `*c1ccc2c(c1)C(=O)N(c1cccc(P(=O)(c3ccc(C(F)(F)F)cc3)c3cccc(N4C(=O)c5ccc(C(*)(C(F)(F)F)C(F)(F)F)cc5C4=O)c3)c1)C2=O` (repeat unit), the glass transition temperature is 260.00 °C. The figure for `*c1ccc2c(c1)C(=O)N(c1cccc(P(=O)(c3ccc(Oc4ccc(C56CC7CC(CC(C7)C5)C6)cc4)cc3)c3cccc(N4C(=O)c5ccc(C(*)(C(F)(F)F)C(F)(F)F)cc5C4=O)c3)c1)C2=O` (repeat unit) is 298.00 °C; for `*c1ccc2c(c1)C(=O)N(c1cccc(P(=O)(c3ccccc3)c3cccc(N4C(=O)c5ccc(C(*)(C(F)(F)F)C(F)(F)F)cc5C4=O)c3)c1)C2=O` (repeat unit) it is 271.00 °C; for `*c1ccc2c(c1)C(=O)N(c1ccccc1Oc1ccc(N3C(=O)c4ccc(C(*)(C(F)(F)F)C(F)(F)F)cc4C3=O)cc1)C2=O` (repeat unit) it is 276.00 °C.

`*c1ccc2c(c1)C(CCCCCC)(CCCCCC)c1cc(-c3cc(OCc4ccccc4)c(*)cc3OCc3ccccc3)ccc1-2` (repeat unit) yielded a glass transition temperature of 73.00 °C. Turning to `*c1ccc2c(c1)C(CCCCCC)(CCCCCC)c1cc(-c3ccc4c(c3)c3cc(*)ccc3n4-c3ccccc3)ccc1-2` (repeat unit), the glass transition temperature was 170.00 °C. `*c1ccc2c(c1)Sc1cc(-c3ccc(-c4ccc(*)s4)s3)ccc1N2CCCCCCCCCC` (repeat unit) gave a glass transition temperature of 142.00 °C. Compound `*c1ccc2c(c1)Sc1cc(-c3sc4cc(*)sc4c3CCCCC)ccc1N2CCCCCC` (repeat unit) returned a glass transition temperature of 126.00 °C.

On to `*c1cccc(C(c2cccc(N3C(=O)c4ccc(-c5ccc6c(c5)C(=O)N(*)C6=O)cc4C3=O)c2)(C(F)(F)F)C(F)(F)F)c1` (repeat unit), for which the glass transition temperature came to 267.00 °C. The figure for `*c1cccc(N2C(=O)c3ccc(C(c4ccc5c(c4)C(=O)N(c4cccc(N6C(=O)c7ccc(-c8ccc9c(c8)C(=O)N(*)C9=O)cc7C6=O)c4)C5=O)(C(F)(F)F)C(F)(F)F)cc3C2=O)c1` (repeat unit) is 308.00 °C; for `*c1cccc(OCCCCCCCCCCOc2cccc(N3C(=O)c4ccc(-c5ccc6c(c5)C(=O)N(*)C6=O)cc4C3=O)c2)c1` (repeat unit) it is 125.00 °C.

Consider `*c1cccc(OCCCCCCCCOc2cccc(N3C(=O)c4ccc(-c5ccc6c(c5)C(=O)N(*)C6=O)cc4C3=O)c2)c1` (repeat unit), for which the glass transition temperature is 138.00 °C.

In turn, `*c1cccc(OCCCCCCCCOc2cccc(N3C(=O)c4ccc(-c5cccc6c5C(=O)N(*)C6=O)cc4C3=O)c2)c1` (repeat unit) had a glass transition temperature of 142.00 °C. Turning to `*c1cccc(OCCCCCCOc2cccc(N3C(=O)c4ccc(-c5cccc6c5C(=O)N(*)C6=O)cc4C3=O)c2)c1` (repeat unit), the glass transition temperature is 157.00 °C.

The compound `*c1cccc(OCCCCCOc2cccc(N3C(=O)c4ccc(-c5cccc6c5C(=O)N(*)C6=O)cc4C3=O)c2)c1` (repeat unit) had a glass transition temperature of 168.00 °C. Compound `*c1cccc(OCCCCOc2cccc(N3C(=O)c4ccc(-c5ccc6c(c5)C(=O)N(*)C6=O)cc4C3=O)c2)c1` (repeat unit) gave a glass transition temperature of 175.00 °C. In turn, `*c1cccc(Oc2cccc(Oc3cccc(N4C(=O)c5ccc(-c6cccc7c6C(=O)N(*)C7=O)cc5C4=O)c3)c2)c1` (repeat unit) yielded a glass transition temperature of 213.00 °C.
